The subject of experiment [1] is Monographella nivalis (Microdochium nivale). The experiment in a line: Example A6: Monographella nivalis (Microdochium nivale) / liquid culture (foot rot cereals). The experiment is classed as cell-based. The conditions noted are these: compared to untreated control. From the text:
Example A6: Monographella nivalis (Microdochium nivale)/Liquid Culture (Foot Rot Cereals) Conidia of the fungus from cryogenic storage are directly mixed into nutrient broth (PDB potato dextrose broth). […] […].10, and X.11.

Experiment [2] has as its system Magnaporthe grisea (Pyricularia oryzae). The experiment in a line: whole plant or invertebrate. The experiment is classed as in vivo. The note with it: foliar, read-out: control of Magnaporthe grisea.
A further experiment concerns Alternaria solani. The experiment in a line: Example A1: Alternaria solani / tomato / leaf disc (early blight). The class given is in vivo. The note with it: foliar, tomato leaf disks, compared to untreated control. Here is the method:
Example A1: Alternaria solani/Tomato/Leaf Disc (Early Blight) Tomato leaf disks cv. Baby are placed on agar in multiwell plates (24-well format) and sprayed with the formulated test compound diluted in water. The leaf disks are inoculated with a spore suspension of the fungus 2 days after application. The inoculated leaf disks are incubated at 23° C./21° C. […] […].10, and X.11.

For experiment [3], the system named is Puccinia recondita f. sp. tritici. The experiment in a line: Example A10: Puccinia recondita f. sp. tritici / wheat / leaf disc preventative (brown rust). The experiment is classed as in vivo. The note with it: foliar, compared to untreated control. The protocol:
Example A10: Puccinia recondita f. Sp. Tritici/Wheat/Leaf Disc Preventative (Brown Rust) Wheat leaf segments cv. Kanzler are placed on agar in multiwell plates (24-well format) and sprayed with the formulated test compound diluted in water. The leaf disks are inoculated with a spore suspension of the fungus 1 day after application. The inoculated leaf segments are incubated at 19° C. and 75% rh under a light regime of 12 h light/12 h darkness in a climate cabinet and the activity of a compound is assessed as percent disease control compared to untreated when an appropriate level of disease damage appears in untreated check leaf segments (7-9 days after application). […] […].10, and X.11.

The subject of the next experiment is Pyrenophora teres. In words: Example A12: Pyrenophora teres / barley / leaf disc preventative (net blotch). The class given is in vivo. The note with it: foliar, compared to untreated control. Here is the method:
Example A12: Pyrenophora teres/Barley/Leaf Disc Preventative (Net Blotch) Barley leaf segments cv. Hasso are placed on agar in a multiwell plate (24-well format) and sprayed with the formulated test compound diluted in water. The leaf […] inoculated with a spore suspension of the fungus 2 days after application. The inoculated leaf segments are incubated at 20° C. and 65% rh under a light regime of 12 h light/12 h darkness in a climate cabinet and the activity of a compound is assessed as disease control compared to untreated when an appropriate level of disease damage appears in untreated check leaf segments (5-7 days after application). […] […].10, and X.11.

In experiment [4] the test system is Blumeria graminis f. sp. tritici (Erysiphe graminis f. sp. tritici). In words: Example A4: Blumeria graminis f. sp. tritici / wheat / leaf disc preventative (powdery mildew on wheat). The class given is in vivo. The conditions noted are these: foliar, compared to untreated control. The text has this:
Example A4: Blumeria graminis f. Sp. Tritici (Erysiphe graminis f. Sp. Tritici)/Wheat/Leaf Disc Preventative (Powdery Mildew on Wheat) Wheat leaf segments cv. Kanzler are placed on agar in a multiwell plate (24-well format) and sprayed with the formulated test compound diluted in water. The leaf disks are inoculated by shaking powdery mildew infected plants above the test plates 1 day after application. […] […].10, and X.11.

Experiment [5] concerns Glomerella lagenarium (Colletotrichum lagenarium). The experiment in a line: Example A3: Glomerella lagenarium (Colletotrichum lagenarium) / liquid culture (anthracnose). The class given is cell-based. The note with it: Colletotrichum orbiculare, compared to untreated control. The text has this: Example A3: Glomerella lagenarium (Colletotrichum lagenarium)/Liquid Culture (Anthracnose) Conidia of the fungus from cryogenic storage are directly mixed into nutrient broth (PDB potato dextrose broth). […] […].10, and X.11.

The next experiment has as its system Sclerotinia sclerotiorum. The experiment in a line: Example A13: Sclerotinia sclerotiorum / liquid culture (cottony rot). The class given is cell-based. The note with it: 20 ppm, compared to untreated control.

The structures appear in SMILES notation.

A word on the inhibition of growth: it is the share of the control response that was lost under treatment.

Take `Cc1sc(N(C(=O)C(C)OC(C)(C)C)c2cc(F)nc(F)c2)nc1C(=O)NC1CCC1(C)C` (centres unmarked) [X.05, 2-[2-tert-butoxypropanoyl-(2,6-difluoro-4-pyridyl)amino]-N-(2,2-dimethylcyclobutyl)-5-methyl-thiazole-4-carboxamide]: in experiment [1], the inhibition of growth at 20 ppm was no less than 80%. For the same compound, the pest or weed control at 200 ppm (in experiment [2]; in the experiment with Alternaria solani; in experiment [3]; in the experiment with Pyrenophora teres; in experiment [4]) was no less than 80% in each case.
In the case of `Cc1sc(N(C(=O)COC(C)(C)C)c2cc(F)nc(F)c2)nc1C(=O)NC1CCC1(C)C` (centres unmarked) [X.07, 2-[(2-tert-butoxyacetyl)-(2,6-difluoro-4-pyridyl)amino]-N-(2,2-dimethylcyclobutyl)-5-methyl-thiazole-4-carboxamide], the pest or weed control at 200 ppm in experiment [2] and in experiment [4] was no less than 80% throughout.
`Cc1sc(N(C(=O)C(C)OC(C)C)c2cc(F)nc(F)c2)nc1C(=O)NC1CCC1(C)C` (centres unmarked) [X.06, 2-[(2,6-difluoro-4-pyridyl)-(2-isopropoxypropanoyl)amino]-N-(2,2-dimethylcyclobutyl)-5-methyl-thiazole-4-carboxamide]: the inhibition of growth at 20 ppm in experiment [1] and in experiment [5] was no less than 80% throughout. Also, the pest or weed control at 200 ppm (in experiment [2]; in the experiment with Alternaria solani; in experiment [3]; in the experiment on Pyrenophora teres; in experiment [4]) was no less than 80% throughout.
Consider `Cc1sc(N(C(=O)C2COC2)c2cc(F)nc(F)c2)nc1C(=O)NC1CCC1(C)C` (centres unmarked) [X.04, 2-[(2,6-difluoro-4-pyridyl)-(oxetane-3-carbonyl)amino]-N-(2,2-dimethylcyclobutyl)-5-methyl-thiazole-4-carboxamide], for which the inhibition of growth at 20 ppm in experiment [1] and in experiment [5] was no less than 80% each time. Also, the pest or weed control at 200 ppm (in experiment [2]; with Alternaria solani; in experiment [3]; with Pyrenophora teres; in experiment [4]) was no less than 80% throughout.
For the compound `Cc1sc(N(C(=O)C2CCOCC2)c2cc(F)nc(F)c2)nc1C(=O)NC1CCC1(C)C` (centres unmarked) [X.11, 2-[(2,6-difluoro-4-pyridyl)-(tetrahydropyran-4-carbonyl)amino]-N-(2,2-dimethylcyclobutyl)-5-methyl-thiazole-4-carboxamide], the inhibition of growth at 20 ppm in experiment [1] and in experiment [5] was no less than 80% each time. Further, the pest or weed control at 200 ppm (in the experiment on Alternaria solani; in experiment [3]; in the experiment with Pyrenophora teres; in experiment [4]) was no less than 80% throughout.
Turning to `COC(C)C(=O)N(c1cc(F)nc(F)c1)c1nc(C(=O)NC2CCC2(C)C)c(C)s1` (centres unmarked) [X.09, 2-[(2,6-difluoro-4-pyridyl)-(2-methoxypropanoyl)amino]-N-(2,2-dimethylcyclobutyl)-5-methyl-thiazole-4-carboxamide], the inhibition of growth at 20 ppm in experiment [1] and in experiment [5] was no less than 80% each time. Further, the pest or weed control at 200 ppm (in experiment [2]; in the experiment with Alternaria solani; in experiment [3]; in the experiment on Pyrenophora teres; in experiment [4]) was no less than 80% each time.
On to `Cc1sc(N(C(=O)C2CCOC2)c2cc(F)nc(F)c2)nc1C(=O)NC1CCC1(C)C` (centres unmarked) [X.03, 2-[(2,6-difluoro-4-pyridyl)-(tetrahydrofuran-3-carbonyl)amino]-N-(2,2-dimethylcyclobutyl)-5-methyl-thiazole-4-carboxamide], for which the inhibition of growth at 20 ppm in experiment [1] and in experiment [5] was no less than 80% each time. The pest or weed control at 200 ppm (in experiment [2]; in the experiment on Alternaria solani; in experiment [3]; with Pyrenophora teres; in experiment [4]) was no less than 80% each time.
Turning to `Cc1sc(N(C(=O)C2CCCO2)c2cc(F)nc(F)c2)nc1C(=O)NC1CCC1(C)C` (centres unmarked) [X.02, 2-[(2,6-difluoro-4-pyridyl)-(tetrahydrofuran-2-carbonyl)amino]-N-(2,2-dimethylcyclobutyl)-5-methyl-thiazole-4-carboxamide], the inhibition of growth at 20 ppm in experiment [1] and in experiment [5] was no less than 80% throughout. For the same compound, the pest or weed control at 200 ppm (in experiment [2]; in the experiment on Alternaria solani; in experiment [3]; in the experiment with Pyrenophora teres; in experiment [4]) was no less than 80% each time.
With `Cc1sc(N(C(=O)C2CCOC2)c2cc(F)nc(F)c2)nc1C(=O)N(C(=O)C1CCOC1)C1CCC1(C)C` (centres unmarked) [Compound X.01, 2-[(2,6-difluoro-4-pyridyl)-(tetrahydrofuran-3-carbonyl)amino]-N-(2,2-dimethylcyclobutyl)-5-methyl-N-(tetrahydrofuran-3-carbonyl)thiazole-4-carboxamide], the inhibition of growth at 20 ppm in experiment [1] and in experiment [5] was no less than 80% throughout. Further, the pest or weed control at 200 ppm (in experiment [2]; in the experiment with Alternaria solani; in experiment [3]; in the experiment on Pyrenophora teres; in experiment [4]) was no less than 80% in each case.
For `Cc1sc(N(C(=O)COC(C)C)c2cc(F)nc(F)c2)nc1C(=O)NC1CCC1(C)C` (centres unmarked) [X.08, 2-[(2,6-difluoro-4-pyridyl)-(2-isopropoxyacetyl)amino]-N-(2,2-dimethylcyclobutyl)-5-methyl-thiazole-4-carboxamide], the pest or weed control at 200 ppm in experiment [2] and in experiment [4] was no less than 80% throughout.
For `Cc1sc(N(C(=O)C(C)S(C)(=O)=O)c2cc(F)nc(F)c2)nc1C(=O)NC1CCC1(C)C` (centres unmarked) [X.10, 2-[(2,6-difluoro-4-pyridyl)-(2-methylsulfonylpropanoyl)amino]-N-(2,2-dimethylcyclobutyl)-5-methyl-thiazole-4-carboxamide], the inhibition of growth at 20 ppm in experiment [1] and in experiment [5] was no less than 80% throughout. For the same compound, the pest or weed control at 200 ppm (in experiment [2]; with Alternaria solani; in the experiment with Pyrenophora teres; in experiment [4]) was no less than 80% throughout. In addition, the “control of Sclerotinia sclerotiorum” value with Sclerotinia sclerotiorum is recorded as “at least 80%”.

These data come from US20250040552A1, “FUNGICIDAL COMPOSITIONS” (SYNGENTA CROP PROTECTION AG, priority 2021, published 2025).
